This is an account of results in patent publication US11578055B2, “Triazacyclododecansulfonamide (“TCD”)-based protein secretion inhibitors” (KEZAR LIFE SCIENCES, priority 2018, dated 2023).

Data set [1] relates to PD1 signal sequence plus 10 amino acids fused to Gaussia Luciferase (PD1-ss+10aa/Gaussia Luciferase). In words: Dox Induced PD1-ss-Gluc Assay. The note with it: 24 hr, Dox inducible, 293FRT/TO cells; read-out: 24 hr Dox Inducible PD1ssGluc 293FRT/TO: Mean IC50. In kind it is cell-based. In short, it runs like this:
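Stable Flp-In 293 T-REx line expressing the fusion under tetracycline-inducible control, plated the day before assay. Compound dilutions added with doxycycline and incubated at 37 °C, 5% CO2; unspecified stereocentres mean data refer to stereoisomer mixtures.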

The test system of data set [2] is full length TNFα (amino acids 1-233) fused to Gaussia Luciferase. In words: Dox Induced TNFα-FL-Gluc Assay. Format: cell-based. The note with it: 24 hr, Dox inducible, 293FRT/TO cells; read-out: 24 hr Dox Inducible TNFaFLGluc 293FRT/TO: Mean IC50. In short, it runs like this:
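Stable Flp-In 293 T-REx line expressing doxycycline-inducible full-length TNFα fused to Gaussia luciferase; cells plated the day before, then treated with compound dilutions in doxycycline-containing medium at 37° C, 5% CO2. Unspecified stereocentres mean stereoisomer mixtures were tested.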

The test system of data set [3] is full length IL-2 (amino acids 1-153) fused to Gaussia Luciferase. The data set can be described thus: Dox Induced IL2-FL-Gluc Assay. The note with it: 24 hr, Dox inducible, 293FRT/TO cells; read-out: 24 hr Dox Inducible IL2FLGluc 293FRT/TO: Mean IC50. Format: cell-based. In short, it runs like this: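 Flp-In 293 T-REx stable line expressing full-length IL-2 (aa 1-153) with C-terminal Gaussia luciferase fusion under doxycycline-inducible control. Cells plated the day before; compound dilutions added in DMSO/media containing doxycycline, incubated at 37° C, 5% CO2.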

The test system of data set [4] is HER3 signal sequence plus 4 amino acids fused to Gaussia Luciferase (HER3-ss+4aa/Gaussia Luciferase). The data set can be described thus: Dox Induced HER3-ss-Gluc Assay. In kind it is cell-based. The note with it: 24 hr, doxycycline induced, Flp-In 293 T-REx cells; read-out: 24 hr Dox Inducible Her3(ss + 4) Gluc 293FRT/TO: Mean 1050. From the text: FIp-In 293 T-REx™ cells were transfected with pcDNA™5/FRT/TO plasmid inserted with cDNA encoding Gaussia Luciferase fused to the 3′ end of cDNA encoding HER3 signal sequence plus 4 amino acids (N-[…]-C) (SEQ ID NO: 2). Transfected cells were selected for resistance to the selectable markers Hygromycin and Blasticidin to create a stable cell line that contained the HER3-ss+4aa/Gaussia Luciferase cDNA insert whose expression was regulated under the T-REx™ system. The day before assay, cells were trypsinized and plated in 384-well tissue culture plates. The next day, compound dilutions in DMSO/media containing doxycycline were added to the wells and incubated at 37° C., 5% CO2.
For chemical structures that include one or more stereoisomers, but are illustrated without indicating stereochemistry, the assay data refers to a mixture of stereoisomers.

In data set [5] the test system is multiple myeloma cell line NCl-H929. The data set can be described thus: H929 Cell Viability Assay. Format: cell-based, human. The note with it: Homo sapiens, NCI-H929, 48 h, H929, Celltiter-Glo. In short, it runs like this:
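NCI-H929 myeloma cells in RPMI 1640 with 10% FBS were treated with compound dilutions for 48 h at 37 °C, and viability was then read by CellTiter-Glo luminescence. Compounds drawn without stereochemistry were tested as stereoisomer mixtures.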
For orientation: Cellular ATP, detected with luciferase, serves as a proxy for viable cell number.

Data set [6] has as its system multiple myeloma cell line U266B1. The data set can be described thus: U266 Cell Viability Assay. In kind it is cell-based, human. The note with it: Homo sapiens, U-266; 48 hr, U266, Celltiter-Glo. In short, it runs like this:
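U266B1 myeloma cells in RPMI 1640 with 10% FBS were treated with compound dilutions for 48 h at 37° C, 5% CO2. Viability was read as CellTiter-Glo luminescence. Data for structures drawn without stereochemistry refer to stereoisomer mixtures.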

Data set [7] can be described thus: In Vitro Microsome Stability Assay (human). In kind it is in vitro ADME. The note with it: human liver microsomes, 30 min w/ NADPH. The procedure, abridged:
(§1)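 Species liver microsomes in potassium phosphate buffer were preincubated at 37 °C for 3–5 min with test compound (added from 0.25 mM DMSO stock), then started with NADPH. Samples at 0 and 30 min were quenched with acetonitrile containing internal standard and analysed by LC-MS/MS; % remaining at 30 min used analyte/IS AUC ratios relative to t=0.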
(Liver microsomes are a subcellular fraction often used to study metabolism.)

Data set [8] can be described thus: In Vitro Microsome Stability Assay (mouse). The note with it: mouse liver microsomes, 30 min w/ NADPH. In kind it is in vitro ADME. In short, it runs like this:
as §1

The nature of data set [9]: In Vitro Microsome Stability Assay (rat). The note with it: rat liver microsomes, 30 min w/ NADPH. Format: in vitro ADME. In short, it runs like this: as §1
Data set [10] can be described thus: In Vitro Microsome Stability Assay (monkey). The note with it: monkey liver microsomes, 30 min w/ NADPH. In kind it is in vitro ADME. The procedure, abridged:
as §1

As a reminder, the EC50 is the midpoint of the concentration-response curve. For the compound `COc1cc(F)ccc1N1CCN(S(=O)(=O)N2CCCN(CC3CCCCC3)CCCN(S(=O)(=O)c3ccc(N(C)C)cc3)CC3(CC3)C2)CC1` [A193], the IC50 was 23.8 nM in [1], 748 nM in data set [2], 81.8 nM in [3] and 50.9 nM in data set [4]. Moreover, the EC50 in data set [5] is 6810 nM; in [6], above 25000 nM. For the same compound, the “Liver Microsome Stability-% Left after 30 min w/ NADPH (%) Human” value (“Liver Microsome Stability-% Left … (%) Human” for short) in data set [7] is reported as 34.2%. Further, in data set [8], the “Liver Microsome Stability-% Left after 30 min w/ NADPH (%) Mouse” value (“Liver Microsome Stability-% Left … (%) Mouse” below) turned out to be 10.1%. Further, the “Liver Microsome Stability-% Left after 30 min w/ NADPH (%) Rat” value (shortened to “Liver Microsome Stability-% Left … (%) Rat”) in data set [9] is listed as 11.3%. In data set [10], the “Liver Microsome Stability-% Left after 30 min w/ NADPH (%) Monkey” value (shortened to “Liver Microsome Stability-% Left … (%) Monkey”) was determined as 7.72%.

`COc1ccc(N2CCN(S(=O)(=O)N3CCCN(CC4CCCCC4)CCCN(S(=O)(=O)c4ccc(N(C)C)cc4)C[C@H](C)C3)CC2)cc1F` [A202, 4-{[(3S)-9-(cyclohexylmethyl)-5-{[4-(3-fluoro-4-methoxyphenyl)piperazin-1-yl]sulfonyl}-3-methyl-1,5,9-triazacyclododecan-1-yl]sulfonyl}-N,N-dimethylaniline]: the IC50 amounted to 56.6 nM in data set [1], 2050 nM in [2], 176 nM in data set [3] and 130 nM in data set [4]. Moreover, the EC50 in data set [5] is 2910 nM; in data set [6], above 25000 nM. In addition, in [7], the “Liver Microsome Stability-% Left … (%) Human” value is recorded as 13.3%. Further, the “Liver Microsome Stability-% Left … (%) Mouse” value in data set [8] is on record as 55.0%. In data set [9], the “Liver Microsome Stability-% Left … (%) Rat” value was 50.8%. For the same compound, the “Liver Microsome Stability-% Left … (%) Monkey” value in [10] stood at 38.3%.

Turning to `COc1cc(F)cc(N2CCN(S(=O)(=O)N3CCCN(CC4CCCCC4)CCCN(S(=O)(=O)c4ccc(N(C)C)cc4)CC4(CC4)C3)C[C@H]2C)c1` [A195], the IC50 in data set [1] came out at 211 nM; in [2], 11200 nM; in [3], 668 nM; in [4], 382 nM. Besides, the EC50 in data set [5] and in data set [6] was above 25000 nM each time. Besides, the “Liver Microsome Stability-% Left … (%) Human” value in [7] is reported as 53.6%. The “Liver Microsome Stability-% Left … (%) Mouse” value in data set [8] is 58.5%. Further, the “Liver Microsome Stability-% Left … (%) Rat” value in data set [9] worked out at 63.3%. The “Liver Microsome Stability-% Left … (%) Monkey” value in data set [10] amounted to 32.8%.

In the case of `C[C@@H]1CN(S(=O)(=O)NCc2ccccc2)CCCN(CC2CCCCC2)CCCN(S(=O)(=O)c2ccc(N(C)C)cc2)C1` [A187, (3S)-N-benzyl-9-(cyclohexylmethyl)-5-[4-(dimethylamino)benzenesulfonyl]-3-methyl-1,5,9-triazacyclododecane-1-sulfonamide], the IC50 turned out to be 427 nM in data set [1], 6170 nM in [2], 1090 nM in [3] and 802 nM in data set [4]. For the same compound, the EC50 in [5] is 3870 nM; in data set [6], above 25000 nM. Also, in data set [7], the “Liver Microsome Stability-% Left … (%) Human” value is on record as 0.05%. The “Liver Microsome Stability-% Left … (%) Mouse” value in data set [8] is reported as 0.03%. Further, the “Liver Microsome Stability-% Left … (%) Rat” value in [9] was found to be 0.07%. Moreover, the “Liver Microsome Stability-% Left … (%) Monkey” value in [10] is 0.15%.

In the case of `COc1cccc(N2CCN(S(=O)(=O)N3CCCN(CC4CCCCC4)CCCN(S(=O)(=O)c4ccc(N(C)C)cc4)C[C@H](C)C3)CC2)c1` [A201, 4-{[(3S)-9-(cyclohexylmethyl)-5-{[4-(3-methoxyphenyl)piperazin-1-yl]sulfonyl}-3-methyl-1,5,9-triazacyclododecan-1-yl]sulfonyl}-N,N-dimethylaniline], the IC50 in data set [1] came out at 118 nM; in data set [2] it was 7090 nM; in data set [3], 283 nM; in data set [4], 211 nM. In addition, the EC50 in data set [5] and in [6] was above 25000 nM in each case. In addition, in data set [7], the “Liver Microsome Stability-% Left … (%) Human” value is listed as 32.8%. In data set [8], the “Liver Microsome Stability-% Left … (%) Mouse” value was 39.1%. Further, in data set [9], the “Liver Microsome Stability-% Left … (%) Rat” value came out at 35.4%. Also, the “Liver Microsome Stability-% Left … (%) Monkey” value in data set [10] came out at 26.5%.

On to `CCc1ccc(CNS(=O)(=O)N2CCCN(CC3CCCCC3)CCCN(S(=O)(=O)c3ccc(N(C)C)cc3)C[C@H](C)C2)cc1` [A189, (3S)-9-(cyclohexylmethyl)-5-[4-(dimethylamino)benzenesulfonyl]-N-[(4-ethylpheny)methyl]-3-methyl-1,5,9-triazacyclododecane-1-sulfonamide], for which the IC50 in data set [1] stood at 512 nM; in data set [2], 8140 nM; in [3], 1360 nM; in [4] it was 960 nM. In addition, the EC50 in [5] was 10600 nM; in [6] it was above 25000 nM. Besides, the “Liver Microsome Stability-% Left … (%) Human” value in [7] was found to be 0.06%. Moreover, in data set [8], the “Liver Microsome Stability-% Left … (%) Mouse” value is 0.14%. The “Liver Microsome Stability-% Left … (%) Rat” value in [9] was 0.07%. In addition, in data set [10], the “Liver Microsome Stability-% Left … (%) Monkey” value is listed as 0.01%.

For the compound `C[C@H]1CN(S(=O)(=O)c2ccc(N(C)C)cc2)CCCNCCCN(S(=O)(=O)N2CCc3cc(Cl)ccc3C2)C1` [A183, 4-{[(3S)-5-[(6-chloro-1,2,3,4-tetrahydroisoquinolin-2-yl)sulfonyl]-3-methyl-1,5,9-triazacyclododecan-1-yl]sulfonyl}-N,N-dimethylaniline], the values for the IC50 in data set [1], in data set [3] and in data set [4] were 1440 nM, 2520 nM and 2150 nM, respectively. In addition, the EC50 in data set [5] was 6120 nM; in data set [6], above 25000 nM. Besides, the “Liver Microsome Stability-% Left … (%) Human” value in [7] was determined as 10.1%. Moreover, the “Liver Microsome Stability-% Left … (%) Mouse” value in [8] was found to be 7.39%. The “Liver Microsome Stability-% Left … (%) Rat” value in data set [9] stood at 3.17%. For the same compound, the “Liver Microsome Stability-% Left … (%) Monkey” value in [10] was determined as 0.75%.

Turning to `COc1cc(F)cc(N2CCN(S(=O)(=O)N3CCCN(CC4CCCCC4)CCCN(S(=O)(=O)c4ccc(N(C)C)cc4)C[C@H](C)C3)C[C@H]2C)c1` [A196], the IC50 in data set [1] worked out at 31 nM; in [2], 1470 nM; in data set [3], 105 nM; in data set [4], 78.2 nM. Further, the EC50 in data set [5] and in [6] was above 25000 nM throughout.

`C[C@H]1CN(S(=O)(=O)c2ccc(N(C)C)cc2)CCCN(Cc2ncco2)CCCN(S(=O)(=O)N2CCc3cc(Cl)ccc3C2)C1` [A125, 4-{[(3S)-5-[(6-chloro-1,2,3,4-tetrahydroisoquinolin-2-yl)sulfonyl]-3-methyl-9-[(1,3-oxazol-2-yl)methyl]-1,5,9-triazacyclododecan-1-yl]sulfonyl}-N,N-dimethylaniline]: the figures for the IC50 in data set [1], in data set [2] and in data set [3] were 829 nM, 11500 nM and 1090 nM, respectively. Further, the EC50 in [5] and in data set [6] was above 25000 nM throughout. In data set [7], the “Liver Microsome Stability-% Left … (%) Human” value is given as 0.2%. Further, the “Liver Microsome Stability-% Left … (%) Mouse” value in data set [8] is 0.14%. Moreover, in data set [9], the “Liver Microsome Stability-% Left … (%) Rat” value is reported as 0.37%. Also, the “Liver Microsome Stability-% Left … (%) Monkey” value in [10] is 8.67%.
